pEC50, pIC50: −log10 of the molar value. Blank lines part the entries; values can stand above or below the compound they belong to. Activity calls are given as the source filed them. The rule behind the calls is not given here.
Legend:
[1] = target: T1, L-lactate dehydrogenase A chain (Homo sapiens, UniProt P00338); assay: Inhibition of human LDHA assessed as conversion of pyruvate to lactate measuring disappearance of NADH after 10 mins by fluorescence assay
MG-63 [2] = assay: Cytotoxicity of human MG63 cells assessed as cell growth inhibition after 72 hrs by MTT assay; type: functional, cell-based; conditions: for pEC50: Homo sapiens, MG-63, 72 h, read-out: EC50
[3] = target: T1, L-lactate dehydrogenase A chain; assay: Inhibition of human LDHA in MG63 cells assessed as reduction in lactate formation at 20 uM after 12 hrs; type: cell-based
MG-63 [4] = assay: Induction of apoptosis in human MG63 cells assessed as early apoptotic cells at 10 uM after 12 hrs by Annexin V-FITC/propidium iodide staining based flow cytometry (reference value: 0.4 %); type: functional
MG-63 [5] = assay: Induction of apoptosis in human MG63 cells assessed as late apoptotic cells at 2 uM after 12 hrs by Annexin V-FITC/propidium iodide staining based flow cytometry (reference value: 3.2 %); type: functional
MG-63 [6] = assay: Induction of apoptosis in human MG63 cells assessed as late apoptotic cells at 10 uM after 12 hrs by Annexin V-FITC/propidium iodide staining based flow cytometry (reference value: 3.2 %); type: functional
MG-63 [7] = assay: Induction of apoptosis in human MG63 cells assessed as late apoptotic cells at 5 uM after 12 hrs by Annexin V-FITC/propidium iodide staining based flow cytometry (reference value: 3.2 %); type: functional
MG-63 [8] = assay: Induction of apoptosis in human MG63 cells assessed as necrotic cells at 10 uM after 12 hrs by Annexin V-FITC/propidium iodide staining based flow cytometry (reference value: 0.5 %); type: functional
MG-63 [9] = assay: Induction of apoptosis in human MG63 cells assessed as viable cells at 10 uM after 24 hrs by Annexin V-FITC/propidium iodide staining based flow cytometry (reference value: 95.8 %); type: functional; conditions: MG-63, 24 h, read-out: Activity
MG-63 [10] = assay: Induction of apoptosis in human MG63 cells assessed as early apoptotic cells at 2 uM after 12 hrs by Annexin V-FITC/propidium iodide staining based flow cytometry (reference value: 0.4 %); type: functional
MG-63 [11] = assay: Induction of apoptosis in human MG63 cells assessed as late apoptotic cells at 10 uM after 24 hrs by Annexin V-FITC/propidium iodide staining based flow cytometry (reference value: 3.2 %); type: functional
MG-63 [12] = assay: Induction of apoptosis in human MG63 cells assessed as viable cells at 10 uM after 12 hrs by Annexin V-FITC/propidium iodide staining based flow cytometry (reference value: 95.8 %); type: functional; conditions: MG-63, 12 h, read-out: Activity
MG-63 [13] = assay: Induction of apoptosis in human MG63 cells assessed as necrotic cells at 10 uM after 24 hrs by Annexin V-FITC/propidium iodide staining based flow cytometry (reference value: 0.5 %); type: functional
MG-63 [14] = assay: Induction of apoptosis in human MG63 cells at 10 uM by Annexin V-FITC/propidium iodide staining based flow cytometry; type: functional, cell-based; conditions: TDE = time-dependent effect
MG-63 [15] = assay: Induction of apoptosis in human MG63 cells assessed as necrotic cells at 2 uM after 12 hrs by Annexin V-FITC/propidium iodide staining based flow cytometry (reference value: 0.5 %); type: functional
MG-63 [16] = assay: Induction of apoptosis in human MG63 cells assessed as viable cells at 2 uM after 12 hrs by Annexin V-FITC/propidium iodide staining based flow cytometry (reference value: 95.8 %); type: functional; conditions: MG-63, 12 h, read-out: Activity
MG-63 [17] = assay: Induction of apoptosis in human MG63 cells assessed as viable cells at 5 uM after 12 hrs by Annexin V-FITC/propidium iodide staining based flow cytometry (reference value: 95.8 %); type: functional; conditions: MG-63, 12 h, read-out: Activity
MG-63 [18] = assay: Induction of apoptosis in human MG63 cells assessed as viable cells at 10 uM after 6 hrs by Annexin V-FITC/propidium iodide staining based flow cytometry (reference value: 95.8 %); type: functional; conditions: MG-63, 6 h, read-out: Activity
MG-63 [19] = assay: Induction of apoptosis in human MG63 cells assessed as necrotic cells at 5 uM after 12 hrs by Annexin V-FITC/propidium iodide staining based flow cytometry (reference value: 0.5 %); type: functional
MG-63 [20] = assay: Induction of apoptosis in human MG63 cells after 12 hrs by Annexin V-FITC/propidium iodide staining based flow cytometry; type: functional, cell-based
MG-63 [21] = assay: Induction of apoptosis in human MG63 cells assessed as early apoptotic cells at 5 uM after 12 hrs by Annexin V-FITC/propidium iodide staining based flow cytometry (reference value: 0.4 %); type: functional
[22] = target: T1, L-lactate dehydrogenase A chain; assay: Inhibition of human LDHA in MG63 cells assessed as reduction in lactate formation after 12 hrs; type: cell-based
MG-63 [23] = assay: Induction of apoptosis in human MG63 cells assessed as late apoptotic cells at 10 uM after 6 hrs by Annexin V-FITC/propidium iodide staining based flow cytometry (reference value: 3.2 %); type: functional
MG-63 [24] = assay: Induction of apoptosis in human MG63 cells assessed as early apoptotic cells at 10 uM after 6 hrs by Annexin V-FITC/propidium iodide staining based flow cytometry (reference value: 0.4 %); type: functional
MG-63 [25] = assay: Induction of apoptosis in human MG63 cells assessed as necrotic cells at 10 uM after 6 hrs by Annexin V-FITC/propidium iodide staining based flow cytometry (reference value: 0.5 %); type: functional
MG-63 [26] = assay: Induction of apoptosis in human MG63 cells assessed as early apoptotic cells at 10 uM after 24 hrs by Annexin V-FITC/propidium iodide staining based flow cytometry (reference value: 0.4 %); type: functional

SMILES: Cc1ccc(-c2cc(-c3ccc(F)cc3)nc(SCC(=O)Nc3cccc(C)c3)c2C#N)cc1
pIC50 [1]: 5.47
pEC50 (MG-63 [2]): 5.17

SMILES: COc1ncc(-c2ccc3c(Nc4cccc(C(=O)O)c4)c(S(N)(=O)=O)cnc3c2)c(OC)n1
pIC50 [1]: 5.13
inhibition [3]: Active
pEC50 (MG-63 [2]): 4.55

SMILES: COc1ccc(-c2cc(-c3ccc(OC)cc3)c(C#N)c(SCC(=O)Nc3ccc(C)c(C)c3)n2)cc1
pIC50 [1]: < 4.00
EC50 (MG-63 [2]; mg-63): Not Active

SMILES: COc1ccc(-c2cc(-c3ccc(OC)cc3)c(C#N)c(SCC(=O)Nc3c(C)cccc3C)n2)cc1
pIC50 [1]: 4.65
pEC50 (MG-63 [2]): 4.45

Continued by rising pIC50 [1], values first:

pIC50 [1]: 5.18
SMILES: COc1ccc(-c2cc(-c3ccccc3)c(C#N)c(SCC(=O)Nc3cc(C)cc(C)c3)n2)cc1
pEC50 (MG-63 [2]): 5.24

inhibition [22]: Dose-dependent effect
pIC50 [1]: 5.91
SMILES: CCc1ccccc1NC(=O)CSc1nc(-c2ccc(OC)cc2)cc(-c2ccc(OC)cc2)c1C#N
Activity (MG-63 [4]): 2.8%
Activity (MG-63 [5]): 6.5%
Activity (MG-63 [6]): 14.1%
Activity (MG-63 [7]): 10.3%
Activity (MG-63 [8]): 0.4%
viability at 10 µM (MG-63 [9]): 73.1%
Activity (MG-63 [10]): 2%
Activity (MG-63 [11]): 23.5%
viability at 10 µM (MG-63 [12]): 82.7%
Activity (MG-63 [13]): 0.3%
Activity (MG-63 [14]): Tde
Activity (MG-63 [15]): 0.4%
viability at 2 µM (MG-63 [16]): 91%
viability at 5 µM (MG-63 [17]): 88.2%
viability at 10 µM (MG-63 [18]): 86.1%
Activity (MG-63 [19]): 0.8%
Activity (MG-63 [20]): Dose-dependent effect
Activity (MG-63 [21]): 0.7%
Activity (MG-63 [23]): 8.1%
Activity (MG-63 [24]): 5%
Activity (MG-63 [25]): 0.8%
pEC50 (MG-63 [2]): 6.01
Activity (MG-63 [26]): 3.1%

From ChEMBL document CHEMBL4477228, “Discovery of 2-((3-cyanopyridin-2-yl)thio)acetamides as human lactate dehydrogenase A inhibitors to reduce the growth of MG-63 osteosarcoma cells: Virtual screening and biological validation” (Bioorg Med Chem Lett, 2016)
